Experiments:
[1] = biological target: T1, Bifunctional dihydrofolate reductase-thymidylate synthase (Toxoplasma gondii, UniProt Q07422); experiment: Tested for inhibitory activity against dihydrofolate reductase in Toxoplasma gondii
T1 sequence (Q07422 whole entry): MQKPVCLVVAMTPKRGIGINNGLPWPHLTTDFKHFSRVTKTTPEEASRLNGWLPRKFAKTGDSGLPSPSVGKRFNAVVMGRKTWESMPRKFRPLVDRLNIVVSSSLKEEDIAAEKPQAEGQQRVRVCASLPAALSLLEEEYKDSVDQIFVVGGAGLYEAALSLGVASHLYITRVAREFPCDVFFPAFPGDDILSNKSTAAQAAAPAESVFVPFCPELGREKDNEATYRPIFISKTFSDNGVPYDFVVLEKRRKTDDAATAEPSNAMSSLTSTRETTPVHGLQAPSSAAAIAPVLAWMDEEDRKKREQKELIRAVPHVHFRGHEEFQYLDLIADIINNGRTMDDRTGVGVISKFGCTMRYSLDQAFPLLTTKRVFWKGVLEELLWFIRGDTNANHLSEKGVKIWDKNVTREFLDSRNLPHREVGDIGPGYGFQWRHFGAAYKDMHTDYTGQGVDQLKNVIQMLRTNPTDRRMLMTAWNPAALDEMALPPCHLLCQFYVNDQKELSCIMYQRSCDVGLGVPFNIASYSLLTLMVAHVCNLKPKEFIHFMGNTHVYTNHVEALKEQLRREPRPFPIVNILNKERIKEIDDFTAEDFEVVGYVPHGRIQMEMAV

Dihydrofolate reductase [2] = biological target: T2, Dihydrofolate reductase (Rattus norvegicus, UniProt Q920D2)
T2 sequence (Q920D2 whole entry): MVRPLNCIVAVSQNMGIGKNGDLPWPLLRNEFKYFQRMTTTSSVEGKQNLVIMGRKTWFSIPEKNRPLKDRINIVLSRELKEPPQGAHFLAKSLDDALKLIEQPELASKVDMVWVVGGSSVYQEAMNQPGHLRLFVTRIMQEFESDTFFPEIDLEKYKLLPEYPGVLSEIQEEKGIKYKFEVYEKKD
Description: Inhibition of rat liver dihydrofolate reductase.

Dihydrofolate reductase [3] = biological target: T3, Dihydrofolate reductase (Pneumocystis carinii, UniProt P16184); experiment: Tested for inhibitory activity against dihydrofolate reductase in pneumocystis carinii
T3 sequence (P16184 whole entry): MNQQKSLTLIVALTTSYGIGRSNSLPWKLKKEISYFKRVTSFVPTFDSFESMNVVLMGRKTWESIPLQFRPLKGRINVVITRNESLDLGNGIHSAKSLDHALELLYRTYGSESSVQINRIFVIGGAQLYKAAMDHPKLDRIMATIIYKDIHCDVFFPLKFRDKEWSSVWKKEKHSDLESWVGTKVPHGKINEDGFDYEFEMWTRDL

Dihydrofolate reductase [4] = biological target: T4, Dihydrofolate reductase (Homo sapiens, UniProt P00374); experiment: Tested for inhibitory activity against dihydrofolate reductase in human
T4 sequence (P00374 whole entry): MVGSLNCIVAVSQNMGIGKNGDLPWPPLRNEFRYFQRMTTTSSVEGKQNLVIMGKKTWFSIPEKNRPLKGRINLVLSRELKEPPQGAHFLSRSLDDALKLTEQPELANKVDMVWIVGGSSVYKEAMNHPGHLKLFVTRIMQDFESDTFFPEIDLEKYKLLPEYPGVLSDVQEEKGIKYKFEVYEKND

Dihydrofolate reductase [5] = biological target: Dihydrofolate reductase (Lactobacillus casei, UniProt P00381); experiment: Tested for inhibitory activity against dihydrofolate reductase in Lactobacillus casei; parameters: species or system Lacticaseibacillus casei
Chain of Dihydrofolate reductase (Lactobacillus casei, UniProt P00381) (P00381 whole entry): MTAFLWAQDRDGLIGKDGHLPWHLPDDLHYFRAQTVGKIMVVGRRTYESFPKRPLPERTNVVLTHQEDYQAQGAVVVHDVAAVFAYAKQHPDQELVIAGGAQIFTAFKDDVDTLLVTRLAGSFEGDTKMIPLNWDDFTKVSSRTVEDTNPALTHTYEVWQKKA

CCRF-CEM = experiment: Tested for cell growth inhibition in CCRF-CEM lymphoblasts; assay type: functional, cell-based; conditions: Homo sapiens

Row | Structure (SMILES) | IC50 (Dihydrofolate reductase [2]) | IC50 (Dihydrofolate reductase [4]) | other results
1 | Nc1nc(N)c2c3c(sc2n1)CN(Cc1ccccc1)CC3 | 0.57 µM |  | IC50 [1]: 0.85 µM; IC50 (Dihydrofolate reductase [3]): 5.2 µM
2 | COc1ccc(OC)c(Cc2sc3nc(N)nc(N)c3c2C)c1 | 0.4 µM | 0.73 µM | 
3 | COc1ccc(OC)c(-c2sc3nc(N)nc(N)c3c2C)c1 | 0.37 µM | 0.75 µM | 
4 | COc1ccc(OC)c(CCCc2csc3nc(N)nc(N)c23)c1 | 26 µM |  | 
5 | Cc1c(-c2ccc(Cl)c(Cl)c2)sc2nc(N)nc(N)c12 | 4.6 µM |  | IC50 (Dihydrofolate reductase [5]): 2 µM
6 | Cc1sc2nc(N)nc(N)c2c1-c1ccc(Cl)cc1 | > 100 µM |  | IC50 (Dihydrofolate reductase [5]): > 50 µM
7 | COc1cc(Cc2sc3nc(N)nc(N)c3c2C)cc(OC)c1OC | 51 µM | > 10 µM | 
8 | COc1ccc(OC)c(CCc2sc3nc(N)nc(N)c3c2C)c1 | 5.9 µM | > 10 µM | 
9 | Cc1c(Cc2ccccc2)sc2nc(N)nc(N)c12 | 14 µM |  | IC50 (Dihydrofolate reductase [5]): 1.3 µM; IC50 (CCRF-CEM): 15 µM
10 | COc1cc(-c2sc3nc(N)nc(N)c3c2C)cc(OC)c1OC | 1.8 µM | > 10 µM | 
11 | Cc1sc2nc(N)nc(N)c2c1Cc1ccccc1 | > 37 µM |  | IC50 (Dihydrofolate reductase [5]): > 50 µM
12 | Nc1nc(N)c2c3c(sc2n1)CCCCC3 | 1.3 µM |  | 
13 | COc1ccc(OC)c(CCc2csc3nc(N)nc(N)c23)c1 | 3.1 µM |  | 
14 | Nc1nc(N)c2c3c(sc2n1)CCCCCCCCCC3 | 9.3 µM |  | IC50 (Dihydrofolate reductase [5]): 12 µM; IC50 (CCRF-CEM): 3.7 µM
15 | Cc1c(-c2ccccc2)sc2nc(N)nc(N)c12 |  |  | IC50 (CCRF-CEM): 14 µM
16 | COc1cc(CCc2sc3nc(N)nc(N)c3c2C)cc(OC)c1OC | 25 µM | > 10 µM | 
17 | Nc1nc(N)c2c3c(sc2n1)CCCCCC3 |  |  | IC50 (CCRF-CEM): 12 µM
18 | Nc1nc(N)c2c3c(sc2n1)CCCC3 | 3.9 µM |  | 
